This is an account of results in patent US8846928B2 (Portola Pharmaceuticals, Inc., priority 2010, dated 2014).

The target in this test is T1, full length active recombinant SYK enzyme (Homo sapiens, UniProt P43405).
T1 construct: full length active recombinant SYK enzyme (Millipore, Calif.); purchased Millipore
As to the kind of experiment: Inhibition of Syk tyrosine phosphorylation activity (LANCE TR-FRET kinase assay). The test is classed as biochemical. (In general: In TR-FRET formats the signal depends on donor and acceptor labels being close together.)

Several values for one entry are separate records, joined by “and”; a condition that tells them apart may be missing. Equal values may be shown once.

As to `CC[C@@H](Nc1ccc(C(N)=O)c(Nc2ccc3ncsc3c2)n1)C(N)=O` [Example 206, (R)-6-(1-amino-1-oxobutan-2-ylamino)-2-(benzo[d]thiazol-6-ylamino)nicotinamide], the IC50 is 0.01 to 0.1 µM.
As to `CC[C@@H](Nc1ccc(C(N)=O)c(Nc2ccc3scnc3c2)n1)C(N)=O` [Example 207, (R)-6-(1-amino-1-oxobutan-2-ylamino)-2-(benzo[d]thiazol-5-ylamino)nicotinamide], the IC50 is 0.01 to 0.1 µM.
The same measure for `CC[C@@H](Nc1ccc(C(N)=O)c(Nc2ccc3c(ccn3C)c2)n1)C(N)=O` [Example 208, (R)-6-(1-amino-1-oxobutan-2-ylamino)-2-(1-methyl-1H-indol-5-ylamino)nicotinamide]: 0.01 to 0.1 µM; for `CC[C@@H](Nc1ccc(C(N)=O)c(Nc2cccc3c2ccn3C)n1)C(N)=O` [Example 209, (R)-6-(1-amino-1-oxobutan-2-ylamino)-2-(1-methyl-1H-indol-4-ylamino)nicotinamide]: 0.01 to 0.1 µM.
Then `CC[C@@H](Nc1ccc(C(N)=O)c(Nc2cc(C)ns2)n1)C(N)=O` [Example 210], with 0.01 to 0.1 µM; and `Cc1cc(Nc2nc(N[C@H](CC3CC3)C(N)=O)ccc2C(N)=O)sn1` [Example 211, (R)-6-(1-amino-3-cyclopropyl-1-oxopropan-2-ylamino)-2-(3-methylisothiazol-5-ylamino)nicotinamide], with 0.01 to 0.1 µM; and `NC(=O)c1ccc(N[C@H](CC2CC2)C(N)=O)nc1Nc1cnc2ccccc2c1` [Example 212, (R)-6-(1-amino-3-cyclopropyl-1-oxopropan-2-ylamino)-2-(quinolin-3-ylamino)nicotinamide], with 0.001 to 0.01 µM.
For `NC(=O)c1ccc(N[C@H](CC2CC2)C(N)=O)nc1Nc1ccc2ncccc2c1` [Example 213, (R)-6-(1-amino-3-cyclopropyl-1-oxopropan-2-ylamino)-2-(quinolin-6-ylamino)nicotinamide], the IC50 fell in the range of 0.001 to 0.01 µM.
Then `NC(=O)c1ccc(N[C@H](CC2CC2)C(N)=O)nc1Nc1ccc2cccnc2c1` [Example 214, (R)-6-(1-amino-3-cyclopropyl-1-oxopropan-2-ylamino)-2-(quinolin-7-ylamino)nicotinamide], with 0.01 to 0.1 µM; and `Cc1cc(Nc2cc(N[C@@H](C(N)=O)C3CC3)c(F)cc2C(N)=O)sn1` [Example 215, (R)-4-(2-amino-1-cyclopropyl-2-oxoethylamino)-5-fluoro-2-(3-methylisothiazol-5-ylamino)benzamide], with 0.01 to 0.1 µM; and `CC[C@@H](Nc1nc(Nc2cnc3ccccc3c2)c(C(N)=O)cc1F)C(N)=O` [Example 227, (R)-6-(1-amino-1-oxobutan-2-ylamino)-5-fluoro-2-(quinolin-3-ylamino)nicotinamide], with 0.01 to 0.1 µM.
Regarding `CC[C@@H](Nc1nc(Nc2cnc3ncccc3c2)c(C(N)=O)cc1F)C(N)=O` [Example 228, (R)-6-(1-amino-1-oxobutan-2-ylamino)-5-fluoro-2-(1,8-naphthyridin-3-ylamino)nicotinamide], the half-maximal inhibitory concentration (IC50) lay in the range of 0.01 to 0.1 µM.
Consider `CC[C@@H](Nc1nc(Nc2ccc3nccn3c2)c(C(N)=O)cc1F)C(N)=O` [Example 229, (R)-6-(1-amino-1-oxobutan-2-ylamino)-5-fluoro-2-(H-imidazo[1,2-a]pyridin-6-ylamino)nicotinamide], for which the IC50 fell in the range of 0.01 to 0.1 µM.
In the case of `CC[C@@H](Nc1nc(Nc2ccn3ccnc3c2)c(C(N)=O)cc1F)C(N)=O` [Example 230, (R)-6-(1-amino-1-oxobutan-2-ylamino)-5-fluoro-2-(H-imidazo[1,2-a]pyridin-7-ylamino)nicotinamide], the IC50 fell in the range of 0.1 to 1 µM.
As to `CC[C@@H](Nc1nc(Nc2cccc(OC)c2)c(C(N)=O)cc1F)C(N)=O` [Example 231, (R)-6-(1-amino-1-oxobutan-2-ylamino)-5-fluoro-2-(3-methoxyphenylamino)nicotinamide], the half-maximal inhibitory concentration (IC50) lay in the range of 0.01 to 0.1 µM.
Then `CC[C@@H](Nc1nc(Nc2cncc(OC)c2)c(C(N)=O)cc1F)C(N)=O` [Example 232, (R)-6-(1-amino-1-oxobutan-2-ylamino)-5-fluoro-2-(5-methoxypyridin-3-ylamino)nicotinamide], with 0.1 to 1 µM; and `CC[C@@H](Nc1nc(Nc2ccc3ccccc3c2)c(C(N)=O)cc1F)C(N)=O` [Example 233, (R)-6-(1-amino-1-oxobutan-2-ylamino)-5-fluoro-2-(naphthalen-2-ylamino)nicotinamide], with 0.001 to 0.01 µM; and `CC[C@@H](Nc1nc(Nc2ccc3ncsc3c2)c(C(N)=O)cc1F)C(N)=O` [Example 234, (R)-6-(1-amino-1-oxobutan-2-ylamino)-5-fluoro-2-(benzo[d]thiazol-6-ylamino)nicotinamide], with 0.01 to 0.1 µM.
Then `CC[C@@H](Nc1nc(Nc2cncc(C)c2)c(C(N)=O)cc1F)C(N)=O` [Example 235, (R)-6-(1-amino-1-oxobutan-2-ylamino)-5-fluoro-2-(5-methylpyridin-3-ylamino)nicotinamide], with 0.01 to 0.1 µM.
Then `CC[C@@H](Nc1nc(Nc2cnc3cccnc3c2)c(C(N)=O)cc1F)C(N)=O` [Example 236, (R)-6-(1-amino-1-oxobutan-2-ylamino)-5-fluoro-2-(1,5-naphthyridin-3-ylamino)nicotinamide], with 0.1 to 1 µM; and `CC[C@@H](Nc1nc(Nc2ccc3c(c2)OCO3)c(C(N)=O)cc1F)C(N)=O` [Example 237, (R)-6-(1-amino-1-oxobutan-2-ylamino)-5-fluoro-2-(benzo[d][1,3]dioxol-5-ylamino)nicotinamide], with 0.1 to 1 µM.
For `CC[C@@H](Nc1nc(Nc2cc(C)ns2)c(C(N)=O)cc1F)C(N)=O` [Example 239, (R)-6-(1-amino-1-oxobutan-2-ylamino)-5-fluoro-2-(3-methylisothiazol-5-ylamino)nicotinamide], the concentration for half-maximal inhibition (IC50) was in the range of 0.01 to 0.1 µM.
As for `CC[C@@H](Nc1nc(Nc2cccc3c2cnn3C)c(C(N)=O)cc1F)C(N)=O` [Example 240, (R)-6-(1-amino-1-oxobutan-2-ylamino)-5-fluoro-2-(1-methyl-1H-indazol-4-ylamino)nicotinamide], the IC50 was in the range of 0.1 to 1 µM.
The same measure for `CC[C@@H](Nc1nc(Nc2ccc3c(cnn3C)c2)c(C(N)=O)cc1F)C(N)=O` [Example 241, (R)-6-(1-amino-1-oxobutan-2-ylamino)-5-fluoro-2-(1-methyl-1H-indazol-5-ylamino)nicotinamide]: 0.01 to 0.1 µM; for `CC[C@@H](Nc1nc(Nc2ccnc3ccccc23)c(C(N)=O)cc1F)C(N)=O` [Example 242, (R)-6-(1-amino-1-oxobutan-2-ylamino)-5-fluoro-2-(quinolin-4-ylamino)nicotinamide]: 0.01 to 0.1 µM.
Then `CC[C@@H](Nc1nc(Nc2cccc3c2ccn3C)c(C(N)=O)cc1F)C(N)=O` [Example 243, (R)-6-(1-amino-1-oxobutan-2-ylamino)-5-fluoro-2-(1-methyl-1H-indol-4-ylamino)nicotinamide], with 0.01 to 0.1 µM; and `CC[C@@H](Nc1nc(Nc2ccc3c(ccn3C)c2)c(C(N)=O)cc1F)C(N)=O` [Example 244, (R)-6-(1-amino-1-oxobutan-2-ylamino)-5-fluoro-2-(1-methyl-1H-indol-5-ylamino)nicotinamide], with 0.1 to 1 µM.
The same measure for `CC[C@@H](Nc1nc(Nc2cccc3ncccc23)c(C(N)=O)cc1F)C(N)=O` [Example 245, (R)-6-(1-amino-1-oxobutan-2-ylamino)-5-fluoro-2-(quinolin-5-ylamino)nicotinamide]: 0.01 to 0.1 µM; for `CC(C)C[C@@H](Nc1nc(Nc2ccc3cccnc3c2)c(C(N)=O)cc1F)C(N)=O` [Example 246, (R)-6-(1-amino-4-methyl-1-oxopentan-2-ylamino)-5-fluoro-2-(quinolin-7-ylamino)nicotinamide]: 0.01 to 0.1 µM; for `CC(C)C[C@@H](Nc1nc(Nc2cnc3ccccc3c2)c(C(N)=O)cc1F)C(N)=O` [Example 247, (R)-6-(1-amino-4-methyl-1-oxopentan-2-ylamino)-5-fluoro-2-(quinolin-3-ylamino)nicotinamide]: 0.01 to 0.1 µM.
On to `CC(C)C[C@@H](Nc1nc(Nc2ccc3ncccc3c2)c(C(N)=O)cc1F)C(N)=O` [Example 248, (R)-6-(1-amino-4-methyl-1-oxopentan-2-ylamino)-5-fluoro-2-(quinolin-6-ylamino)nicotinamide], for which the IC50 fell in the range of 0.001 to 0.01 µM.
Then `CC(C)C[C@@H](Nc1nc(Nc2ccc3c(ccn3C)c2)c(C(N)=O)cc1F)C(N)=O` [Example 249, (R)-6-(1-amino-4-methyl-1-oxopentan-2-ylamino)-5-fluoro-2-(1-methyl-1H-indol-5-ylamino)nicotinamide], with 0.01 to 0.1 µM; and `NC(=O)c1cc(F)c(N[C@H](CC2CC2)C(N)=O)nc1Nc1ccc2cccnc2c1` [Example 250, (R)-6-(1-amino-3-cyclopropyl-1-oxopropan-2-ylamino)-5-fluoro-2-(quinolin-7-ylamino)nicotinamide], with 0.01 to 0.1 µM; and `NC(=O)c1cc(F)c(N[C@H](CC2CC2)C(N)=O)nc1Nc1cnc2ccccc2c1` [Example 251, (R)-6-(1-amino-3-cyclopropyl-1-oxopropan-2-ylamino)-5-fluoro-2-(quinolin-3-ylamino)nicotinamide], with 0.001 to 0.01 µM.
The same measure for `NC(=O)c1cc(F)c(N[C@H](CC2CC2)C(N)=O)nc1Nc1ccc2ncccc2c1` [Example 252, (R)-6-(1-amino-3-cyclopropyl-1-oxopropan-2-ylamino)-5-fluoro-2-(quinolin-6-ylamino)nicotinamide]: 0.001 to 0.01 µM.
For `Cc1cc(Nc2nc(N[C@H](CC3CC3)C(N)=O)c(F)cc2C(N)=O)sn1` [Example 253, (R)-6-(1-amino-3-cyclopropyl-1-oxopropan-2-ylamino)-5-fluoro-2-(3-methylisothiazol-5-ylamino)nicotinamide], the IC50 is 0.01 to 0.1 µM.
Then `NC(=O)c1ccc(N[C@@H]2CCCC[C@@H]2N)nc1Nc1ccc2c(c1)OCCO2` [Example 254, 6-((1R,2S)-2-aminocyclohexylamino)-2-(2,3-dihydrobenzo[b][1,4]dioxin-6-ylamino)nicotinamide], with 0.001 to 0.01 µM.
Then `NC(=O)c1ccc(N[C@@H]2CCCC[C@@H]2N)nc1Nc1ccc2c(c1)OCO2` [Example 255], with 0.001 to 0.01 µM and 0.01 to 0.1 µM.

For orientation: IC50 means the concentration that inhibits the measured activity by half.
